Assay: xn = mol fraction of the nth substance listed
Conditions: 308.15 K, Liquid

CCCCCCCCC [nonane] + C1CCCCC1
Conditions	mass density [kg/m3]
100 kPa, x2 = 0	705.8
100 kPa, x2 = 0.09303	708.8
100 kPa, x2 = 0.2009	712.6
100 kPa, x2 = 0.3051	716.8
100 kPa, x2 = 0.417	721.7
100 kPa, x2 = 0.512	726.3
100 kPa, x2 = 0.5996	731.2
100 kPa, x2 = 0.7052	737.9
100 kPa, x2 = 0.7993	745
100 kPa, x2 = 0.9039	754
101 kPa, x2 = 0	706.11
101 kPa, x2 = 0.1022	709.37
101 kPa, x2 = 0.1548	711.18
101 kPa, x2 = 0.2009	712.84
101 kPa, x2 = 0.2591	715.05
101 kPa, x2 = 0.3306	717.98
101 kPa, x2 = 0.4003	721.05
101 kPa, x2 = 0.4596	723.89
101 kPa, x2 = 0.5321	727.62
101 kPa, x2 = 0.612	732.19
101 kPa, x2 = 0.6649	735.49
101 kPa, x2 = 0.7224	739.39
101 kPa, x2 = 0.8047	745.58
101 kPa, x2 = 0.8686	751
101 kPa, x2 = 0.9405	757.89
2130 kPa, x2 = 0	707.5
2130 kPa, x2 = 0.09303	710.5
2130 kPa, x2 = 0.2009	714.3
2130 kPa, x2 = 0.3051	718.5
2130 kPa, x2 = 0.417	723.4
2130 kPa, x2 = 0.512	728
2130 kPa, x2 = 0.5996	733
2130 kPa, x2 = 0.7052	739.7
2130 kPa, x2 = 0.7993	746.8
2130 kPa, x2 = 0.9039	755.7
4150 kPa, x2 = 0	709.2
4150 kPa, x2 = 0.09303	712.2
4150 kPa, x2 = 0.2009	716
4150 kPa, x2 = 0.3051	720.2
4150 kPa, x2 = 0.417	725.1
4150 kPa, x2 = 0.512	729.7
4150 kPa, x2 = 0.5996	734.7
4150 kPa, x2 = 0.7052	741.5
4150 kPa, x2 = 0.7993	748.5
4150 kPa, x2 = 0.9039	757.5
6180 kPa, x2 = 0	710.9
6180 kPa, x2 = 0.09303	713.9
6180 kPa, x2 = 0.2009	717.7
6180 kPa, x2 = 0.3051	721.9
6180 kPa, x2 = 0.417	726.8
6180 kPa, x2 = 0.512	731.4
6180 kPa, x2 = 0.5996	736.4
6180 kPa, x2 = 0.7052	743.2
6180 kPa, x2 = 0.7993	750.3
6180 kPa, x2 = 0.9039	759.3
8210 kPa, x2 = 0	712.5
8210 kPa, x2 = 0.09303	715.5
8210 kPa, x2 = 0.2009	719.4
8210 kPa, x2 = 0.3051	723.6
8210 kPa, x2 = 0.417	728.5
8210 kPa, x2 = 0.512	733.1
8210 kPa, x2 = 0.5996	738.1
8210 kPa, x2 = 0.7052	744.9
8210 kPa, x2 = 0.7993	752
8210 kPa, x2 = 0.9039	761
10230 kPa, x2 = 0	714.1
10230 kPa, x2 = 0.09303	717.1
10230 kPa, x2 = 0.2009	721
10230 kPa, x2 = 0.3051	725.2
10230 kPa, x2 = 0.417	730.1
10230 kPa, x2 = 0.512	734.7
10230 kPa, x2 = 0.5996	739.8
10230 kPa, x2 = 0.7052	746.6
10230 kPa, x2 = 0.7993	753.6
10230 kPa, x2 = 0.9039	762.7
11250 kPa, x2 = 0	714.9
11250 kPa, x2 = 0.09303	717.9
11250 kPa, x2 = 0.2009	721.8
11250 kPa, x2 = 0.3051	726
11250 kPa, x2 = 0.417	730.9
11250 kPa, x2 = 0.512	735.5
11250 kPa, x2 = 0.5996	740.6
11250 kPa, x2 = 0.7052	747.4
11250 kPa, x2 = 0.7993	754.4
11250 kPa, x2 = 0.9039	763.5
12260 kPa, x2 = 0	715.7
12260 kPa, x2 = 0.09303	718.7
12260 kPa, x2 = 0.2009	722.6
12260 kPa, x2 = 0.3051	726.8
12260 kPa, x2 = 0.417	731.7
12260 kPa, x2 = 0.512	736.3
12260 kPa, x2 = 0.5996	741.4
12260 kPa, x2 = 0.7052	748.2
12260 kPa, x2 = 0.7993	755.3
12260 kPa, x2 = 0.9039	764.4
14290 kPa, x2 = 0	717.2
14290 kPa, x2 = 0.09303	720.3
14290 kPa, x2 = 0.2009	724.2
14290 kPa, x2 = 0.3051	728.3
14290 kPa, x2 = 0.417	733.3
14290 kPa, x2 = 0.512	737.9
14290 kPa, x2 = 0.5996	743
14290 kPa, x2 = 0.7052	749.8
14290 kPa, x2 = 0.7993	756.9
14290 kPa, x2 = 0.9039	766
16310 kPa, x2 = 0	718.7
16310 kPa, x2 = 0.09303	721.8
16310 kPa, x2 = 0.2009	725.7
16310 kPa, x2 = 0.3051	729.9
16310 kPa, x2 = 0.417	734.8
16310 kPa, x2 = 0.512	739.4
16310 kPa, x2 = 0.5996	744.5
16310 kPa, x2 = 0.7052	751.4
16310 kPa, x2 = 0.7993	758.4
16310 kPa, x2 = 0.9039	767.5
18340 kPa, x2 = 0	720.2
18340 kPa, x2 = 0.09303	723.2
18340 kPa, x2 = 0.2009	727.2
18340 kPa, x2 = 0.3051	731.4
18340 kPa, x2 = 0.417	736.3
18340 kPa, x2 = 0.512	740.9
18340 kPa, x2 = 0.5996	746.1
18340 kPa, x2 = 0.7052	752.9
18340 kPa, x2 = 0.7993	760
18340 kPa, x2 = 0.9039	769.1
20370 kPa, x2 = 0	721.7
20370 kPa, x2 = 0.09303	724.7
20370 kPa, x2 = 0.2009	728.6
20370 kPa, x2 = 0.3051	732.8
20370 kPa, x2 = 0.417	737.8
20370 kPa, x2 = 0.512	742.4
20370 kPa, x2 = 0.5996	747.6
20370 kPa, x2 = 0.7052	754.4
20370 kPa, x2 = 0.7993	761.5
20370 kPa, x2 = 0.9039	770.6
22390 kPa, x2 = 0	723.1
22390 kPa, x2 = 0.09303	726.1
22390 kPa, x2 = 0.2009	730.1
22390 kPa, x2 = 0.3051	734.3
22390 kPa, x2 = 0.417	739.3
22390 kPa, x2 = 0.512	743.9
22390 kPa, x2 = 0.5996	749.1
22390 kPa, x2 = 0.7052	755.9
22390 kPa, x2 = 0.7993	763
22390 kPa, x2 = 0.9039	772.1
24420 kPa, x2 = 0	724.5
24420 kPa, x2 = 0.09303	727.5
24420 kPa, x2 = 0.2009	731.5
24420 kPa, x2 = 0.3051	735.7
24420 kPa, x2 = 0.417	740.7
24420 kPa, x2 = 0.512	745.3
24420 kPa, x2 = 0.5996	750.5
24420 kPa, x2 = 0.7052	757.4
24420 kPa, x2 = 0.7993	764.4
24420 kPa, x2 = 0.9039	773.6
26450 kPa, x2 = 0	725.9
26450 kPa, x2 = 0.09303	728.9
26450 kPa, x2 = 0.2009	732.9
26450 kPa, x2 = 0.3051	737.1
26450 kPa, x2 = 0.417	742.1
26450 kPa, x2 = 0.512	746.8
26450 kPa, x2 = 0.5996	751.9
26450 kPa, x2 = 0.7052	758.8
26450 kPa, x2 = 0.7993	765.8
26450 kPa, x2 = 0.9039	775.1
28470 kPa, x2 = 0	727.2
28470 kPa, x2 = 0.09303	730.3
28470 kPa, x2 = 0.2009	734.2
28470 kPa, x2 = 0.3051	738.4
28470 kPa, x2 = 0.417	743.5
28470 kPa, x2 = 0.512	748.1
28470 kPa, x2 = 0.5996	753.3
28470 kPa, x2 = 0.7052	760.2
28470 kPa, x2 = 0.7993	767.2
28470 kPa, x2 = 0.9039	776.5
29490 kPa, x2 = 0	727.8
29490 kPa, x2 = 0.09303	730.9
29490 kPa, x2 = 0.2009	734.9
29490 kPa, x2 = 0.3051	739.1
29490 kPa, x2 = 0.417	744.1
29490 kPa, x2 = 0.512	748.7
29490 kPa, x2 = 0.5996	754
29490 kPa, x2 = 0.7052	760.9
29490 kPa, x2 = 0.7993	767.9
29490 kPa, x2 = 0.9039	777.2
30500 kPa, x2 = 0	728.5
30500 kPa, x2 = 0.09303	731.6
30500 kPa, x2 = 0.2009	735.6
30500 kPa, x2 = 0.3051	739.8
30500 kPa, x2 = 0.417	744.8
30500 kPa, x2 = 0.512	749.4
30500 kPa, x2 = 0.5996	754.7
30500 kPa, x2 = 0.7052	761.6
30500 kPa, x2 = 0.7993	768.6
30500 kPa, x2 = 0.9039	777.9
32530 kPa, x2 = 0	729.8
32530 kPa, x2 = 0.09303	732.9
32530 kPa, x2 = 0.2009	736.9
32530 kPa, x2 = 0.3051	741.1
32530 kPa, x2 = 0.417	746.1
32530 kPa, x2 = 0.512	750.8
32530 kPa, x2 = 0.5996	756
32530 kPa, x2 = 0.7052	762.9
32530 kPa, x2 = 0.7993	770
32530 kPa, x2 = 0.9039	779.3
34550 kPa, x2 = 0	731.1
34550 kPa, x2 = 0.09303	734.2
34550 kPa, x2 = 0.2009	738.2
34550 kPa, x2 = 0.3051	742.4
34550 kPa, x2 = 0.417	747.4
34550 kPa, x2 = 0.512	752
34550 kPa, x2 = 0.5996	757.3
34550 kPa, x2 = 0.7052	764.3
34550 kPa, x2 = 0.7993	771.3
34550 kPa, x2 = 0.9039	780.6
36580 kPa, x2 = 0	732.4
36580 kPa, x2 = 0.09303	735.4
36580 kPa, x2 = 0.2009	739.5
36580 kPa, x2 = 0.3051	743.7
36580 kPa, x2 = 0.417	748.7
36580 kPa, x2 = 0.512	753.3
36580 kPa, x2 = 0.5996	758.6
36580 kPa, x2 = 0.7052	765.6
36580 kPa, x2 = 0.7993	772.6
36580 kPa, x2 = 0.9039	781.9
38600 kPa, x2 = 0	733.6
38600 kPa, x2 = 0.09303	736.7
38600 kPa, x2 = 0.2009	740.8
38600 kPa, x2 = 0.3051	745
38600 kPa, x2 = 0.417	750
38600 kPa, x2 = 0.512	754.6
38600 kPa, x2 = 0.5996	759.9
38600 kPa, x2 = 0.7052	766.9
38600 kPa, x2 = 0.7993	773.9
38600 kPa, x2 = 0.9039	783.3
39620 kPa, x2 = 0	734.3
39620 kPa, x2 = 0.09303	737.4
39620 kPa, x2 = 0.2009	741.4
39620 kPa, x2 = 0.3051	745.6
39620 kPa, x2 = 0.417	750.6
39620 kPa, x2 = 0.512	755.3
39620 kPa, x2 = 0.5996	760.6
39620 kPa, x2 = 0.7052	767.5
39620 kPa, x2 = 0.7993	774.5
39620 kPa, x2 = 0.9039	783.9

Source: the NIST ThermoML archive (doi:10.1016/j.jct.2007.04.005)
